Assay results taken from patent EP4635952A1, “SOLID FORM OF N-SUBSTITUTED PHENYLSULFONAMIDE COMPOUND” (Shanghai Leado Pharmatech Co. Ltd., priority 2022, dated 2024).
Where a name gives a salt, the structure may show the parent alone. Read-outs that look alike come from different tables or passages of the source.

Key:
Format in all cases: physicochemical
[1] = Solid-state stability (HPLC purity and XRPD crystal form on storage); conditions: for Purity (area %) / Initial purity (area %): HPLC; for Initial purity (area %): starting sample before storage
Experimental: About 10 mg of each solid form of the compound was weighed and added to the HPLC vial, respectively, the bottleneck was sealed with a sealing film, and 10 small holes were made on the film. The vial was placed in 25° C/60% RH and 40° C/75% RH environment for 4 weeks, samples were taken in the 1st week, the 2rd week and the 4th week respectively, the purity (by HPLC analysis) and crystal form (by X ray powder diffraction analysis) of the sample were investigated. […]

[2] = Hygroscopicity by dynamic moisture absorption (DVS); conditions: 25°C/80% RH; for moisture adsorption: DVS, 0% RH-95% RH adsorption curve; for hygroscopicity classification: criteria of 2015 edition of the Chinese Pharmacopoeia (Guidelines for Drug Hygroscopicity Test)
Experimental: Dynamic moisture adsorption (DVS) analysis: the instrument is a DVS Intrinsic produced by SMS company (Surface Measurement Systems); temperature, 25° C.; carrier gas, flow rate: nitrogen, 200 mL/min; mass change per unit time: 0.002%/min; relative humidity range: 0%RH-95%RH.
Dynamic moisture absorption (DVS) was used to test their hygroscopicity.

[3] = Approximate solubility in purified water
Experimental: To determine the approximate solubility, the corresponding solid form sample was added to a 3 mL glass vial. Purified water was incrementally introduced (50, 50, 200, and 700 µL) while vortexing and ultrasonically agitating to facilitate dissolution. […] Solvent addition was halted either when full dissolution was achieved or when the total water volume reached 1 mL. The approximate solubility was then calculated based on the final solvent volume used.

[4] = Dynamic solubility in biorelevant media SGF, FaSSIF or water; conditions: 37°C, dosed at 10 mg/mL, 1-24 hours, Figure 31
Experimental: The dynamic solubility of fumarate crystal form B, hydrochloride crystal form C, sulfate crystal form D, succinate crystal form E, malate crystal form F, and free crystal form A was assessed at 37°C in biorelevant media SGF, FaSSIF or water. All samples were dosed at 10 mg/mL in each solvent. The samples were sealed and mounted on a rotating disk rotating at 25 rpm, and the rotating disk was placed in a 37° C. incubator. Samples were taken at time points 1, 2, 4, and 24 hours of equilibration, and the filtrate was separated and tested concentration by HPLC and pH, while isolated solids were characterized by XRPD.

[5] = 25°C/60% RH and 40°C/75% RH, 4 weeks

| Structure (SMILES) | Purity (area %) ([1]; 25°C /60%RH/open, 1 week) | Purity (area %) ([1]; 25°C /60%RH/open, 2 weeks) | Purity (area %) ([1]; 25°C /60%RH/open, 4 weeks) | Purity (area %) ([1]; 40°C /75%RH/open, 1 week) | Purity (area %) ([1]; 40°C /75%RH/open, 2 weeks) | Purity (area %) ([1]; 40°C /75%RH/open, 4 weeks) | Initial purity (area %) [1] | moisture adsorption [2] | hygroscopicity classification [2] | Solubility [3] | Solubility ([3]; listed as Free form crystal A) | dynamic solubility ([4]; FaSSIF) | dynamic solubility ([4]; water) | HPLC purity [1, 5] | crystal form (XRPD) before and after placement [1, 5] |
| --- | --- | --- | --- | --- | --- | --- | --- | --- | --- | --- | --- | --- | --- | --- | --- |
| CNCc1ccc(NS(=O)(=O)c2ccsc2)c(-c2ccco2)c1 [benzene sulfonate crystal form J, N-(2-(furan-2-yl)-4-((methylamino)methyl)-phenyl)thiophene-3-sulfonamide] | 98.87 area % | 98.85 area % | 98.82 area % | 98.87 area % | 98.82 area % | 98.79 area % | 98.87 area % | – | – | – | – | – | – | – | – |
| CNCc1ccc(NS(=O)(=O)c2ccsc2)c(-c2ccco2)c1 [Tartrate crystal form H, N-(2-(furan-2-yl)-4-((methylamino)methyl)phenyl)thiophene-3-sulfonamide] | 98.71 area % | 98.62 area % | 98.6 area % | 98.7 area % | 98.6 area % | 98.53 area % | 98.71 area % | – | – | – | – | – | – | – | – |
| CNCc1ccc(NS(=O)(=O)c2ccsc2)c(-c2ccco2)c1 [Pyroglutamate crystal form I, N-(2-(furan-2-yl)-4-((methylamino)methyl)phenyl)thiophene-3-sulfonamide] | 98.61 area % | 98.58 area % | 98.57 area % | 98.61 area % | 98.54 area % | 98.32 area % | 98.61 area % | – | – | S>38.0 mg/mL | – | – | – | – | – |
| CNCc1ccc(NS(=O)(=O)c2ccsc2)c(-c2ccco2)c1 [Malonate crystal form K, N-(2-(furan-2-yl)-4-((methylamino)methyl)phenyl) thiophene-3-sulfonamide] | 98.64 area % | 98.61 area % | 98.59 area % | 98.64 area % | 98.58 area % | 98.46 area % | 98.64 area % | – | – | – | – | – | – | – | – |
| CNCc1ccc(NS(=O)(=O)c2ccsc2)c(-c2ccco2)c1 [Phosphate crystal form G, N-(2-(furan-2-yl)-4-((methylamino)methyl)phenyl)thiophene-3-sulfonamide] | 98.11 area % | 98.09 area % | 98.04 area % | 98.11 area % | 98.06 area % | 98.01 area % | 98.11 area % | – | – | – | – | – | – | – | – |

Continued, values first:

| Purity (area %) ([1]; 25°C /60%RH/open, 1 week) | Purity (area %) ([1]; 25°C /60%RH/open, 2 weeks) | Purity (area %) ([1]; 25°C /60%RH/open, 4 weeks) | Purity (area %) ([1]; 40°C /75%RH/open, 1 week) | Purity (area %) ([1]; 40°C /75%RH/open, 2 weeks) | Purity (area %) ([1]; 40°C /75%RH/open, 4 weeks) | Initial purity (area %) [1] | moisture adsorption [2] | hygroscopicity classification [2] | Solubility [3] | Solubility ([3]; listed as Free form crystal A) | dynamic solubility ([4]; FaSSIF) | dynamic solubility ([4]; water) | HPLC purity [1, 5] | crystal form (XRPD) before and after placement [1, 5] | Structure (SMILES) |
| --- | --- | --- | --- | --- | --- | --- | --- | --- | --- | --- | --- | --- | --- | --- | --- |
| 98.72 area % | 98.7 area % | 98.79 area % | 98.74 area % | 98.75 area % | 98.68 area % | 98.72 area % | 1.4% | slightly hygroscopic | – | – | – | – | – | – | CNCc1ccc(NS(=O)(=O)c2ccsc2)c(-c2ccco2)c1 [malate crystal form F, N-(2-(furan-2-yl)-4-((methylamino)methyl)phenyl)thiophene-3-sulfonamide] |
| 98.18 area % | 98.14 area % | 98.1 area % | 98.19 area % | 98.2 area % | 98.13 area % | 98.11 area % | 1.6% | slightly hygroscopic | – | S<2.0 mg/mL | negligible dissolution | negligible dissolution | did not decrease significantly | no detectable crystalline phase changes | CNCc1ccc(NS(=O)(=O)c2ccsc2)c(-c2ccco2)c1 [free crystal form A, N-(2-(furan-2-yl)-4-((methylamino)methyl)phenyl)thiophene-3-sulfonamide] |
| 98.53 area % | 98.47 area % | 98.57 area % | 98.4 area % | 98.5 area % | 98.52 area % | 98.55 area % | 0.2% | slightly hygroscopic | – | – | – | – | – | – | CNCc1ccc(NS(=O)(=O)c2ccsc2)c(-c2ccco2)c1 [fumarate crystal form B, N-(2-(furan-2-yl)-4-((methylamino)methyl)phenyl)thiophene-3-sulfonamide] |
| 98.74 area % | 98.65 area % | 98.78 area % | 98.76 area % | 98.65 area % | 98.78 area % | 98.77 area % | 1.3% | slightly hygroscopic | – | – | – | – | – | – | CNCc1ccc(NS(=O)(=O)c2ccsc2)c(-c2ccco2)c1 [sulfate crystal form D, N-(2-(furan-2-yl)-4-((methylamino)methyl)phenyl)thiophene-3-sulfonamide] |
| 98.92 area % | 98.86 area % | 98.94 area % | 98.92 area % | 98.72 area % | 98.98 area % | 98.82 area % | 0.6% | slightly hygroscopic | – | – | – | – | – | – | CNCc1ccc(NS(=O)(=O)c2ccsc2)c(-c2ccco2)c1 [succinate crystal form E, N-(2-(furan-2-yl)-4-((methylamino)methyl)phenyl)thiophene-3-sulfonamide] |
| 98.97 area % | 98.92 area % | 98.87 area % | 99.02 area % | 98.9 area % | 99 area % | 99.02 area % | 5.5% | hygroscopic | – | – | – | – | – | – | CNCc1ccc(NS(=O)(=O)c2ccsc2)c(-c2ccco2)c1 [hydrochloride crystal form C, N-(2-(furan-2-yl)-4-((methylamino)methyl)phenyl)thiophene-3-sulfonamide] |
